# Data as given in PMC11078990, “Identification and characterization of small molecule inhibitors of the LINE-1 retrotransposon endonuclease” (Nature Communications, 2024).
# Several values for one entry are separate records, joined by “and”; a condition that tells them apart may be missing. Equal entries are not always repeated. Where two headings read alike, the source gives them in different places.
# Columns and labels:
# [1] = target: L1 EN (LINE-1 retrotransposon endonuclease domain) (Homo sapiens, UniProt O00370, N5T); test: Fluorescent oligonucleotide EN nicking activity assay; type: biochemical
# [2] = target: T1, APE1 (Homo sapiens, UniProt P27695); test: APE1 fluorescent oligonucleotide activity assay (abasic site substrate); type: biochemical; conditions: for activity at 25 µM: read-out: APE1 activity (%)
# T1 construct: purchased New England Biolabs (NEB) M0282S
# [3] = test system: substrate oligonucleotide used in the EN activity assay; type: binding; parameters: key to Binding Detected? (Y/N): Binding Detected? (Y/N); Binding Detected? (Y/N)
# [4] = test system: L1 retrotransposition; test: HeLa dual-luciferase L1 retrotransposition assay; type: cell-based, human
# [5] = test system: HeLa Tet-On cells; conditions: human
# [6] = read-out: EN activity, percent of no inhibitor control
# [7] = [Inhibitor] 1 μM, technical replicates 1-3, Fig. 2b source data, 1 µM
# [8] = [Inhibitor] 1 μM, technical replicates 1-3, Fig. 2b source data, read-out: EN activity, percent of no inhibitor control
# [9] = [Inhibitor] 5 μM, technical replicates 1-3, Fig. 2b source data, 5 µM
# [10] = [Inhibitor] 5 μM, technical replicates 1-3, Fig. 2b source data, read-out: EN activity, percent of no inhibitor control
# [11] = [Inhibitor] 50 μM, technical replicates 1-3, Fig. 2b source data, 50 µM
# [12] = [Inhibitor] 50 μM, technical replicates 1-3, Fig. 2b source data, read-out: EN activity, percent of no inhibitor control
# [13] = [Inhibitor] 100 μM, technical replicates 1-3, Fig. 2b source data, 100 µM
# [14] = [Inhibitor] 100 μM, technical replicates 1-3, Fig. 2b source data, read-out: EN activity, percent of no inhibitor control
# [15] = [Inhibitor] 250 μM, technical replicates 1-3, Fig. 2b source data, 250 µM
# [16] = [Inhibitor] 500 μM, technical replicates 1-3, Fig. 2b source data, 500 µM
# [17] = [Inhibitor] 1000 μM, technical replicates 1-3, Fig. 2b source data, 1000 µM
# [18] = [Inhibitor] 1000 μM, technical replicates 1-3, Fig. 2b source data, read-out: EN activity, percent of no inhibitor control
# [19] = compound at 25 μM, average of 3 replicates
# [20] = inhibitors at 25 μM, relative to 0 μM inhibitor control, mean ± s.d., 3 independent experiments
# L1 EN (LINE-1 retrotransposon endonuclease domain), sequence (O00370 1-239 N5T): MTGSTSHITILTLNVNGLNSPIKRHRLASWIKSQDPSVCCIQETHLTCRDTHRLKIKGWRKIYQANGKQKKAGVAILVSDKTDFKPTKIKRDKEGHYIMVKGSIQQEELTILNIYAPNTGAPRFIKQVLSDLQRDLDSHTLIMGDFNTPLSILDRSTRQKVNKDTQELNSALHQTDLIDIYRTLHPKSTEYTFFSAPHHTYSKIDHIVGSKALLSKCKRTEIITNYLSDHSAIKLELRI
smiles,measurement,setting,value
Cc1cc(=O)oc2c3c(ccc12)O/C(=N/Nc1ccc([N+](=O)[O-])cc1[N+](=O)[O-])C3=O [AD5],"EN activity, percent of no inhibitor control",[1]; 0.5 µM,83.4432% and 74.5276%
same,"EN activity, percent of no inhibitor control",[1]; 2 µM,70.978% and 73.9003%
same,"EN activity, percent of no inhibitor control",[1]; 5 µM,74.0185% and 75.6649%
same,"EN activity, percent of no inhibitor control",[1]; 10 µM,77.2953% and 59.874% and 46.95%
same,"EN activity, percent of no inhibitor control",[1]; 25 µM,51.0006% and 46.7642%
same,"EN activity, percent of no inhibitor control",[1]; 100 µM,9.806% and 12.2088%
same,"EN activity, percent of no inhibitor control",[1]; 250 µM,10.849% and 15.1279%
same,"EN activity, percent of no inhibitor control",[1]; 500 µM,8.917% and 12.6828%
same,remaining activity at 0.5 µM,[1]; [6],82.5%
same,remaining activity at 2 µM,[1]; [6],78.9%
same,remaining activity at 5 µM,[1]; [6],74.7%
same,remaining activity at 25 µM,[1]; [6],46.1%
same,remaining activity at 100 µM,[1]; [6],7.29%
same,remaining activity at 250 µM,[1]; [6],12%
same,remaining activity at 500 µM,[1]; [6],9.9%
same,"APE1 percent activity, Replicate 1",[2],111.351%
same,"APE1 percent activity, Replicate 2",[2],107.526%
same,"APE1 percent activity, Replicate 3",[2],109.094%
same,"APE1 percent activity, average",[2],109.324%
same,activity at 25 µM,[2],109 ± 1.9%
same,Binding Detected? (Y/N),[3],N
same,Effect on L1 retrotransposition,[4],did not significantly impact retrotransposition
same,"Luciferase (retrotransposition), average",[4],7.139
same,"Luciferase (retrotransposition), replicates",[4],5.447 and 9.3633 and 6.616 and 7.129
same,"PrestoBlue (viability), average",[5],15.98
O=C(Nc1ccc(S(=O)(=O)NCc2ccco2)cc1)c1cc(NS(=O)(=O)c2cccs2)cc(NS(=O)(=O)c2cccs2)c1 [AD18],"EN activity, percent of no inhibitor control",[1]; [7],113.77% and 114.319%
same,remaining activity at 1 µM,[1]; [8],128%
same,"EN activity, percent of no inhibitor control",[1]; [9],110.276% and 111.074%
same,remaining activity at 5 µM,[1]; [10],98.7%
same,"EN activity, percent of no inhibitor control","[1]; [Inhibitor] 10 μM, technical replicates 1-3, Fig. 2b source data, 10 µM",114.402% and 118.423%
same,remaining activity at 10 µM,"[1]; [Inhibitor] 10 μM, technical replicates 1-3, Fig. 2b source data, read-out: EN activity, percent of no inhibitor control",107%
same,"EN activity, percent of no inhibitor control","[1]; [Inhibitor] 25 μM, technical replicates 1-3, Fig. 2b source data, 25 µM",99.7158% and 102.855%
same,remaining activity at 25 µM,"[1]; [Inhibitor] 25 μM, technical replicates 1-3, Fig. 2b source data, read-out: EN activity, percent of no inhibitor control",118%
same,"EN activity, percent of no inhibitor control",[1]; [11],87.6677% and 95.4608%
same,remaining activity at 50 µM,[1]; [12],82%
same,"EN activity, percent of no inhibitor control",[1]; [13],45.2675% and 31.8714%
same,remaining activity at 100 µM,[1]; [14],46.3%
same,"EN activity, percent of no inhibitor control",[1]; [15],-2.192% and 4.074% and 1.188%
same,"EN activity, percent of no inhibitor control",[1]; [16],1.364% and -0.7511% and -2.792%
same,"EN activity, percent of no inhibitor control",[1]; [17],4.465% and 5.692%
same,remaining activity at 1000 µM,[1]; [18],3.32%
same,"APE1 percent activity, Replicate 1","[2]; compound at 25 μM, Replicate 1",95.6087%
same,"APE1 percent activity, Replicate 2","[2]; compound at 25 μM, Replicate 2",100.395%
same,"APE1 percent activity, Replicate 3","[2]; compound at 25 μM, Replicate 3",113.415%
same,"APE1 percent activity, average",[2]; [19],103.14%
same,activity at 25 µM,[2]; [20],103 ± 9.2%
same,Binding Detected? (Y/N),[3],N
same,Effect on L1 retrotransposition,[4]; HeLa cells,did not significantly impact retrotransposition
Cc1ccc(NC(=O)CSc2nc(-c3ccccc3F)nc3c2Cc2c(CO)cnc(C)c2O3)cc1 [AD28],"EN activity, percent of no inhibitor control",[1]; [7],96.841% and 106.468%
same,remaining activity at 1 µM,[1]; [8],95.4%
same,"EN activity, percent of no inhibitor control",[1]; [9],89.9598% and 81.1542%
same,remaining activity at 5 µM,[1]; [10],92%
same,"EN activity, percent of no inhibitor control","[1]; [Inhibitor] 20 μM, technical replicates 1-3, Fig. 2b source data, 20 µM",104.354% and 99.6299%
same,remaining activity at 20 µM,"[1]; [Inhibitor] 20 μM, technical replicates 1-3, Fig. 2b source data, read-out: EN activity, percent of no inhibitor control",87.7%
same,"EN activity, percent of no inhibitor control",[1]; [11],92.3894% and 103.331%
same,remaining activity at 50 µM,[1]; [12],89.2%
same,"EN activity, percent of no inhibitor control",[1]; [13],86.184% and 81.609%
same,remaining activity at 100 µM,[1]; [14],79.1%
same,"EN activity, percent of no inhibitor control",[1]; [15],59.9195% and 84.2317% and 41.5158%
same,"EN activity, percent of no inhibitor control",[1]; [16],4.092% and 40.0005% and 32.2238%
same,"EN activity, percent of no inhibitor control","[1]; [Inhibitor] 750 μM, technical replicates 1-3, Fig. 2b source data, 750 µM",45.0869% and 49.2787%
same,remaining activity at 750 µM,"[1]; [Inhibitor] 750 μM, technical replicates 1-3, Fig. 2b source data, read-out: EN activity, percent of no inhibitor control",52.5%
same,"EN activity, percent of no inhibitor control",[1]; [17],23.297% and 19.7447%
same,remaining activity at 1000 µM,[1]; [18],37.6%
same,"APE1 percent activity, Replicate 1","[2]; compound at 25 μM, Replicate 1",117.021%
same,"APE1 percent activity, Replicate 2","[2]; compound at 25 μM, Replicate 2",119.222%
same,"APE1 percent activity, Replicate 3","[2]; compound at 25 μM, Replicate 3",118.718%
same,"APE1 percent activity, average",[2]; [19],118.32%
same,activity at 25 µM,[2]; [20],118 ± 1.2%
same,Binding Detected? (Y/N),[3],N
